Consider six molecules from patent US7192943B2, “Cephem compounds” (Astellas Pharma Inc., priority 2003, dated 2007).

Values after ≈ are worked out from the molar mass of the structure shown.

The test system of the assay is Pseudomonas aeruginosa FP 1380. As to the kind of experiment: In vitro antibacterial activity (MIC) by two-fold agar-plate dilution method. The class given is cell-based. The conditions noted are these: FP1380; test strain Pseudomonas aeruginosa FP 1380; heart infusion agar, incubation at 37° C. for 20 hours. The protocol:
Now in order to show the utility of the object compound [I], the test data on MIC (minimal inhibitory concentration) of a representative compound of this invention are shown in the following.
In vitro antibacterial activity was determined by the two-fold agar-plate dilution method as described below.
One loopful of an overnight culture of each test strain in Trypticase-soy broth (10^6 viable cells per ml) was streaked on heart infusion agar (HI-agar) containing graded concentrations of representative test compound, and the minimal inhibitory concentration (MIC) was expressed in μg/ml after incubation at 37° C. for 20 hours.

For orientation: MIC means the least concentration at which growth counts as inhibited. Read a high MIC as weaker potency. Take `CC(C)(O/N=C(\C(=O)N[C@@H]1C(=O)N2C(C(=O)[O-])=C(C[n+]3ccccc3)CS[C@H]12)c1csc(N)n1)C(=O)O` [Ceftazidime, reference compound]: the MIC was 128 µg/mL (≈ 234 µM). As for `Cn1c(N)c(NC(=O)N(CCN)CCN)c[n+]1CC1=C(C(=O)[O-])N2C(=O)[C@@H](NC(=O)/C(=N\OC(C)(C)C(=O)O)c3nsc(N)n3)[C@H]2SC1` [Compound (a), 7β-[(Z)-2-(5-amino-1,2,4-thiadiazol-3-yl)-2-(1-carboxy-1-methylethoxyimino)acetamido]-3-{3-amino-4-({[bis(2-aminoethyl)amino]carbonyl}amino)-2-methyl-1-pyrazolio}methyl-3-cephem-4-carboxylate], the figure is 1 µg/mL (≈ 1.41 µM); as for `Cn1c(N)c(NC(=O)N(CCN)CCN)c[n+]1CC1=C(C(=O)O)N2C(=O)[C@@H](NC(=O)/C(=N\OC(C)(C)C(=O)O)c3nsc(N)n3)[C@H]2SC1.O=S(=O)([O-])O` [Compound (b), 7β-[(Z)-2-(5-amino-1,2,4-thiadiazol-3-yl)-2-(1-carboxy-1-methylethoxyimino)acetamido]-3-{3-amino-4-({[bis(2-aminoethyl)amino]carbonyl}amino)-2-methyl-1-pyrazolio}methyl-3-cephem-4-carboxylic acid hydrogensulfate], 1 µg/mL.

The molecule `Cn1c(N)c(NC(=O)N(CCN)CCCN)c[n+]1CC1=C(C(=O)[O-])N2C(=O)[C@@H](NC(=O)/C(=N\OC(C)(C)C(=O)O)c3nsc(N)n3)[C@H]2SC1` [Compound (c), 7β-[(Z)-2-(5-amino-1,2,4-thiadiazol-3-yl)-2-(1-carboxy-1-methylethoxyimino)acetamido]-3-[3-amino-4-({[N-(2-aminoethyl)-N-(3-aminopropyl)amino]carbonyl}-amino)-2-methyl-1-pyrazolio]methyl-3-cephem-4-carboxylate] returned an MIC of 1 µg/mL (≈ 1.38 µM). With `Cn1c(N)c(NC(=O)NC(CN)CN)c[n+]1CC1=C(C(=O)O)N2C(=O)[C@@H](NC(=O)/C(=N\OC(C)(C)C(=O)O)c3nsc(N)n3)[C@H]2SC1.O=S(=O)([O-])O` [Compound (d), 7β-[(Z)-2-(5-amino-1,2,4-thiadiazol-3-yl)-2-(1-carboxy-1-methylethoxyimino)acetamido]-3-(3-amino-4-{3-[2-amino-1-(aminomethyl)ethyl]ureido}-2-methyl-1-pyrazolio)methyl-3-cephem-4-carboxylic acid hydrogensulfate] the figure was 1 µg/mL; with `Cn1c(N)c(NC(=O)CC(=O)NC(CN)CN)c[n+]1CC1=C(C(=O)[O-])N2C(=O)[C@@H](NC(=O)/C(=N\OC(C)(C)C(=O)O)c3nsc(N)n3)[C@H]2SC1` [Compound (e), 7β-[(Z)-2-(5-amino-1,2,4-thiadiazol-3-yl)-2-(1-carboxy-1-methylethoxyimino)acetamido]-3-{3-amino-4-[(3-{[2-amino-1-(aminomethyl)ethyl]amino}-3-oxopropanoyl)amino]-2-methyl-1-pyrazolio}methyl-3-cephem-4-carboxylate], 1 µg/mL (≈ 1.36 µM).
